Laboratory results published in patent US10183047B2, “Chromium-containing compositions in combination with Phyllanthus emblica and shilajit having synergistic effects for improving endothelial function and cardiovascular health” (Natreon, Inc., priority 2014, dated 2019).

Tests used:
Format in all cases: in vivo, human
[1] = system: high sensitivity C-reactive protein (hsCRP); assay: hsCRP by ELISA, type 2 diabetics
Procedure: (§1) The present clinical study is a prospective, randomized, double blind, placebo-controlled study. Patients of either sex, aged 30-65 years, fasting plasma glucose of 110-126 mg/dl, a glycosylated hemoglobin (HbA1c) between 6.5% and 8% and taking stable dose of anti-diabetic treatment (metformin 1500-2000 mg/day) for the past 8 weeks prior to the screening visit; and having endothelial dysfunction defined as ≤6% change in reflection index (RI) on post salbutamol challenge test were included in the study. Patients with severe uncontrolled hyperglyceamia, uncontrolled hypertension, cardiac arrhythmia, impaired hepatic or renal function, history of malignancy or stroke, smoking, chronic alcoholism, any other serious disease requiring active treatment and treatment with any other herbal supplements, were excluded from the study.
(§2) After screening, all the eligible subjects were randomized to receive either one of the three treatments orally for duration of 12 weeks—Group1—one capsule of Crominex®3+, 200 mcg once daily, Group 2—one capsule Crominex®3+, 400 mcg once daily; Group 3—one capsule of placebo once daily.
(§3) Subjects were required for follow up at 4, 8 and 12 weeks of therapy. At each visit they were evaluated for efficacy and safety. Pharmacodynamic evaluation for endothelial function was conducted at every visit. Blood samples were collected for evaluation of biomarkers before and at the end of treatment. Safety lab investigations for hematological, hepatic and renal biochemical parameters were conducted before and at the end of the study and also as and when required (in case of any adverse drug reaction (ADR). Subjects were enquired for the presence of ADR and the same was recorded in the case report form. Compliance to therapy was assessed by pill count method.
(§4) Nitric oxide, MDA, Glutathione and levels were estimated spectrophotometrically as follows. Malondialdehyde (MDA) levels were determined as described in Vidyasagar, et al., “Oxidative stress and antioxidant status in acute organophosphorous insecticide poisoning,” Indian J. Pharmacol. (April 2004) 36(2): 76-79. Glutathione levels were determined as described in G. L. Ellman, Arch. Biochem. Biophys. (1959) 82: 70-77 (original determination). Nitric oxide levels were estimated spectrophotometrically as described in Miranda, et al., “A Rapid, Simple Spectrophotometric Method for Simultaneous Detection of Nitrate and Nitrite,” NITRIC OXIDE: Biology and Chemistry (2001) Vol. 5, No. 1, pp. 62-71. hsCRP (high sensitivity C-reactive protein) was determined by ELISA method.
(§5) When the results with Crominex® 3+ in the above two examples were highly significant, especially with the 400 mcg once daily dose in type 2 diabetics, two more clinical studies (EXAMPLES 3 & 4) were conducted at the same institute, following the same methodology as described earlier, on the individual components of Crominex® 3+, i.e., chromium chloride and Phyllanthus emblica+Shilajit, and other chromium supplements available in the market, i.e., chromium picolinate, chromium polynicotinate and chromium dinicocysteinate, in type 2 diabetics as well as in subjects with metabolic syndrome symptoms.

[2] = Blood pressure, type 2 diabetics; conditions: type 2 diabetics (Example 3), chromium products 400 mcg
Procedure: as §5

[3] = Blood pressure, metabolic syndrome subjects; conditions: metabolic syndrome subjects (Example 4), chromium products 400 mcg
From the text: (§6) Patients included in the study, were of either gender, aged 30-68 years, having endothelial dysfunction defined as ≤6% change in reflection index (RI) on post salbutamol challenge test and central obesity as defined by The International Diabetes Federation guidelines, dated 2006, and any two of the following conditions:
(§7) After screening, all the eligible subjects were randomized to receive either one of the three treatments orally for duration of 12 weeks: group 1—one capsule of Crominex®3+ 200 mcg once daily; group 2—one capsule 400 mcg once daily; group 3—one capsule of Placebo once daily.
(§8) Subjects were reviewed for follow up at 4 weeks, 8 and 12 weeks of therapy. At each visit they were evaluated for efficacy and safety. Pharmacodynamic evaluation for endothelial function was conducted at baseline and end of treatment. Blood samples were collected for evaluation of biomarkers before and at end of treatment. Safety lab investigations for hematological, hepatic and renal biochemical parameters were conducted before and at the end of the study and also as and when required (in case of any adverse drug reaction (ADR)). Subjects were enquired for the presence of ADR and the same was recorded in the case report form. Compliance to therapy was assessed by pill count method.
as §5

nitric oxide (NO) [4] = assay: Nitric oxide level, spectrophotometric, type 2 diabetics
Procedure: as §1, §2, §3, §4, §5

lipid profile [5] = assay: Lipid profile (TC, HDL-C, LDL-C, TG, VLDL-C), type 2 diabetics
Procedure: as §1, §2, §3
(§9) All the subjects had undergone complete physical examination, safety lab evaluations at baseline and at the end of the treatment. Samples were collected after an overnight fast of 12 hrs after the last dose of medication for determination of hemoglobin, glycosylated hemoglobin (HbA1c), blood urea, serum creatinine, liver function, lipid profile (Total cholesterol, High density lipoprotein cholesterol (HDL-C), low density lipoprotein cholesterol (LDL-C) using appropriate standard techniques.
as §5

nitric oxide (NO) [6] = assay: Nitric oxide level, metabolic syndrome subjects
Procedure: as §4, §6, §7, §8
(§10) Assessment of endothelial function, biomarkers, safety parameters and primary and secondary efficacy parameters and data analysis were performed as described under the study with type 2 diabetic subjects in Example 1.
as §5

lipid profile [7] = assay: Lipid profile (TC, HDL-C, LDL-C, TG), metabolic syndrome subjects
From the text: as §9
Patients included in the study, were of either gender, aged 30-68 years, having endothelial dysfunction defined as ≤6% change in reflection index (RI) on post salbutamol challenge test and central obesity as defined by The International Diabetes Federation guidelines, dated 2006, and any two of the following conditions: […]
as §8, §10, §5

[8] = type 2 diabetics (Example 3), chromium products 400 mcg, 12 week treatment
[9] = type 2 diabetics (Example 3), chromium products 400 mcg, post-treatment, 12 weeks
[10] = type 2 diabetics (Example 3), chromium products 400 mcg, pre-treatment
[11] = type 2 diabetics (Example 3), chromium products 400 mcg, 12 weeks of treatment
[12] = metabolic syndrome subjects (Example 4), chromium products 400 mcg, after 12 weeks of treatment
[13] = metabolic syndrome subjects (Example 4), chromium products 400 mcg, pre-treatment

## chromium dinicocysteinate
[1]; DM, 400 mcg
  hsCRP: −8.61%
[1]; [8]
  Mean percentage change in hsCRP: −8.61 ± 12.40 #@NS %
[1]; [9]
  hsCRP Post Tt: 2.56 ± 0.58 @ mg/L
[1]; [10]
  hsCRP Pre Tt: 2.79 ± 0.53 mg/L
[2]; post-treatment, 12 weeks
  Diastolic blood pressure Post Tt: 76.78 ± 1.22 NS mmHg
  Systolic blood pressure Post Tt: 118.11 ± 2.11 NS mmHg
[2]; pre-treatment
  Diastolic blood pressure Pre Tt: 77.00 ± 1.41 mmHg
  Systolic blood pressure Pre Tt: 118.89 ± 3.08 mmHg
[3]; after 12 weeks of treatment
  Diastolic blood pressure Post Tt: 78.8 ± 2.67 NS mmHg
  Systolic blood pressure Post Tt: 122.0 ± 2.66 NS mmHg
[3]; pre-treatment
  Diastolic blood pressure Pre Tt: 80.0 ± 2.99 mmHg
  Systolic blood pressure Pre Tt: 124.8 ± 3.37 mmHg
Nitric oxide (NO) [4]; DM, 400 mcg
  NO: 7.08%
Nitric oxide (NO) [4]; [8]
  Mean percentage change in NO: 7.08 ± 2.40@NS %
Nitric oxide (NO) [4]; [9]
  NO Post Tt: 30.91 ± 2.87 μM/L
Nitric oxide (NO) [4]; [10]
  NO Pre Tt: 28.88 ± 2.72 μM/L
Lipid profile [5]; DM, 400 mcg
  HDL: 1.19%
  LDL: −0.81%
  TC: −0.38%
  TG: −0.37%
Lipid profile [5]; [11]
  Mean percentage change in HDL-C: 1.19 ± 4.01 NS %
  Mean percentage change in LDL-C: −0.81 ± 1.52 $NS %
  Mean percentage change in Total Cholesterol: −0.38 ± 0.86 #NS %
  Mean percentage change in Triglycerides: −0.37 ± 0.92 NS %
Lipid profile [5]; [9]
  HDL-C Post Tt: 37.83 ± 2.90 NS mg/dl
  LDL-C Post Tt: 128.91 ± 16.46 $^ mg/dl
  Total Cholesterol Post Tt: 201.28 ± 17.29 NS mg/dl
  Triglycerides Post Tt: 172.67 ± 3.88 NS mg/dl
Lipid profile [5]; [10]
  HDL-C Pre Tt: 37.39 ± 2.43 mg/dL
  LDL-C Pre Tt: 130.00 ± 16.71 mg/dL
  Total Cholesterol Pre Tt: 202.06 ± 17.48 mg/dL
  Triglycerides Pre Tt: 173.33 ± 4.83 mg/dL
Nitric oxide (NO) [6]; MS, 400 mcg
  NO: 7.68%
Nitric oxide (NO) [6]; [12]
  NO Post Tt: 32.66 ± 3.88 μM/L
Nitric oxide (NO) [6]; metabolic syndrome subjects (Example 4), chromium products 400 mcg, after 12 weeks treatment
  Mean percentage change in NO: 7.68 ± 2.25%
Nitric oxide (NO) [6]; [13]
  NO Pre Tt: 30.33 ± 3.58 μM/L
Lipid profile [7]; MS, 400 mcg
  HDL: −0.71%
  LDL: 2.11%
  TC: 1.4%
  TG: 1.04%
Lipid profile [7]; mean percentage change after 12 weeks of treatment, 400 mcg, Example 4
  LDL-C, mean percentage change: 2.11%
Lipid profile [7]; [12]
  HDL-C Post Tt: 36.61 ± 5.67 NS mg/dl
  LDL-C Post Tt: 113.64 ± 14.96 mg/dL
  Mean percentage change in HDL-C: −0.71 ± 3.95%
  Mean percentage change in Total Cholesterol: 1.40 ± 1.03%
  Mean percentage change in Triglycerides: 1.04 ± 1.06%
  Total Cholesterol Post Tt: 184.50 ± 12.49 mg/dL
  Triglycerides Post Tt: 171.22 ± 6.92 mg/dL
Lipid profile [7]; [13]
  HDL-C Pre Tt: 36.83 ± 5.22 mg/dL
  LDL-C Pre Tt: 111.22 ± 14.34 mg/dL
  Total Cholesterol Pre Tt: 181.94 ± 12.10 mg/dL
  Triglycerides Pre Tt: 169.44 ± 6.24 mg/dL
